# In patent publication US20150141435A1, “2-PYRIDONE ANTIMICROBIAL COMPOSITIONS” (Emergent BioSolutions, priority 2010, published 2015):
# Where a name gives a salt, the structure may show the parent alone. Read-outs that look alike come from different tables or passages of the source.
# Experiments:
# Assay type in all cases: cell-based
# S. aureus ATCC 25923 = test: MIC, CLSI broth microdilution (Table 1); conditions: Staphylococcus aureus
# [1] = test system: S. aureus ATCC 43300 (MRSA, FQ-S); test: MIC, CLSI broth microdilution (Table 1); conditions: Staphylococcus aureus, read-out: MIC S. aureus ATCC 43300 (MRSA, FQ-S)
# [2] = test system: S. aureus BAA-1720 (MRSA, FQ-R); test: MIC, CLSI broth microdilution (Table 1); conditions: Staphylococcus aureus, read-out: MIC S. aureus BAA-1720 (MRSA, FQ-R)
# E. faecium ATCC 19434 = test: MIC, CLSI broth microdilution (Table 1); conditions: Enterococcus faecium
# E. faecalis ATCC 29212 = test: MIC, CLSI broth microdilution (Table 1); conditions: Enterococcus faecalis
# S. pneumonia ATCC 49619 = test: MIC, CLSI broth microdilution (Table 1); conditions: Streptococcus pneumoniae
# E. coli ATCC 25922 = test: MIC, CLSI broth microdilution (Table 2); conditions: Escherichia coli
# A. baumannii ATCC 19606 = test: MIC, CLSI broth microdilution (Table 2); conditions: Acinetobacter baumannii
# P. aeruginosa ATCC 27853 = test: MIC, CLSI broth microdilution (Table 2); conditions: Pseudomonas aeruginosa, ATCC27853; Gram negative; MHB, 37° C., 16-20 hours; read-out: MIC P. aeruginosa ATCC 27853
# K. pneumoniae ATCC 33495 = test: MIC, CLSI broth microdilution (Table 2); conditions: Klebsiella pneumoniae
# H. influenzae ATCC 49247 = test: MIC, CLSI broth microdilution (Table 2); conditions: Haemophilus influenzae
# [3] = test system: S. maltophilia ATCC 17677; test: MIC, CLSI broth microdilution (Table 2); conditions: Stenotrophomonas maltophilia
# [4] = test system: Bacillus anthracis Ames strain; test: microbe, parasite or virus in culture
# [5] = test system: Brucella abortus ATCC 23448; test: microbe, parasite or virus in culture; conditions: ATCC23448
# [6] = test system: Burkholderia mallei ATCC 23344; test: microbe, parasite or virus in culture; conditions: ATCC23344
# [7] = test system: Burkholderia pseudomallei ATCC 23343; test: microbe, parasite or virus in culture; conditions: ATCC23343
# [8] = test system: Francisella tularensis Schu S4; test: microbe, parasite or virus in culture; conditions: SCHUS4
# Yersinia pestis C092 = test: microbe, parasite or virus in culture
# [9] = ATCC25923, Gram positive, MHB, 37° C., 16-20 hours, read-out: MIC S. aureus ATCC 25923
# [10] = Gram positive, MHB, 37° C., 16-20 hours
# [11] = ATCC19434, Gram positive, MHB, 37° C., 16-20 hours, read-out: MIC E. faecium ATCC 19434
# [12] = ATCC29212, read-out: MIC E. faecalis ATCC 29212
# [13] = ATCC49619, Gram positive, MHB, 37° C., 16-20 hours, read-out: MIC S. pneumonia ATCC 49619
# [14] = ATCC25922, Gram negative, MHB, 37° C., 16-20 hours, read-out: MIC E. coli ATCC 25922
# [15] = ATCC19606, Gram negative, MHB, 37° C., 16-20 hours, read-out: MIC A. baumannii B. ATCC 19606
# [16] = ATCC33495, read-out: MIC K. pneumoniae ATCC 33495
# [17] = ATCC49247, Gram negative, MHB, 37° C., 16-20 hours, read-out: MIC H. influenzae ATCC 49247
# [18] = ATCC17677, Gram negative, MHB, 37° C., 16-20 hours, read-out: MIC S. maltophilia ATCC 17677
# [19] = ATCC29212, Gram positive, MHB, 37° C., 16-20 hours, read-out: MIC E. faecalis ATCC 29212
# [20] = ATCC49619, read-out: MIC S. pneumonia ATCC 49619
# [21] = ATCC19606, read-out: MIC A. baumannii B. ATCC 19606
# [22] = ATCC33495, Gram negative, MHB, 37° C., 16-20 hours, read-out: MIC K. pneumoniae ATCC 33495
# [23] = ATCC25922, read-out: MIC E. coli ATCC 25922
# [24] = ATCC25923, read-out: MIC S. aureus ATCC 25923
# [25] = ATCC49247, read-out: MIC H. influenzae ATCC 49247
# [26] = ATCC17677, read-out: MIC S. maltophilia ATCC 17677
SMILES,MIC (S. aureus ATCC 25923; [9]) [µg/mL],"MIC [1, 10] [µg/mL]","MIC [2, 10] [µg/mL]",MIC (E. faecium ATCC 19434; [11]) [µg/mL],MIC (S. pneumonia ATCC 49619; [13]) [µg/mL],MIC (E. coli ATCC 25922; [14]) [µg/mL],MIC (A. baumannii ATCC 19606; [15]) [µg/mL],MIC (P. aeruginosa ATCC 27853) [µg/mL],MIC (H. influenzae ATCC 49247; [17]) [µg/mL],"MIC [3, 18] [µg/mL]",MIC [4] [µg/mL],MIC [5] [µg/mL],MIC [6] [µg/mL],MIC [7] [µg/mL],MIC [8] [µg/mL],MIC (Yersinia pestis C092) [µg/mL],MIC (E. faecalis ATCC 29212; [19]) [µg/mL],MIC (K. pneumoniae ATCC 33495; [22]) [µg/mL],also measured
"Cc1c(-c2ccnc(F)c2)ccn2c(=O)c(C(=O)O)cc(C3CC3)c12 [Example 20 K salt, 1-cyclopropyl-8-(2-fluoro-pyridin-4-yl)-9-methyl-4-oxo-4H-quinolizine-3-carboxylic acid]",0.032,0.016,1,1,0.25,0.064,0.25,2 to 4,≤ 0.004,0.25,0.031,0.063,0.125,0.25,0.008 to 0.016,0.063,–,–,MIC (E. faecalis ATCC 29212; [12]): 0.125 µg/mL; MIC (K. pneumoniae ATCC 33495; [16]): 0.125 to 0.25 µg/mL
"Cc1c(-c2ccc(CO)cc2)ccn2c(=O)c(C(=O)O)cc(C3CC3)c12 [Example 48 K salt, 1-cyclopropyl-8-(4-hydroxy-methyl-phenyl)-9-methyl-4-oxo-4H-quinolizine-3-carboxylic acid]",0.008 to 0.016,0.008,0.5,1,–,0.064,–,2,≤ 0.004,0.25,0.008,0.031,0.125,0.125,0.016,0.031,0.032 to 0.064,0.25,MIC (S. pneumonia ATCC 49619; [20]): 0.125 µg/mL; MIC (A. baumannii ATCC 19606; [21]): 0.125 µg/mL
"Cc1c(-c2cccc(N)c2)ccn2c(=O)c(C(=O)O)cc(C3CC3)c12 [Example 3 K salt, 8-(3-amino-phenyl)-1-cyclopropyl-9-methyl-4-oxo-4H-quinolizine-3-carboxylic acid]",0.016,0.016,0.5,1,0.25,–,0.25,2,0.016,0.25,0.008,0.125,0.5 to 1,0.25,0.031,0.031 to 0.063,0.064,0.25,MIC (E. coli ATCC 25922; [23]): 0.064 to 0.125 µg/mL
"Cc1c(-c2ccc(N)c(F)c2)c(F)cn2c(=O)c(C(=O)O)cc(C3CC3)c12 [Example 1 K salt, 8-(4-amino-3-fluoro-phenyl)-1-cyclopropyl-7-fluoro-9-methyl-4-oxo-4H-quinolizine-3-carboxylic acid]",–,–,–,–,–,–,–,–,–,–,0.004,0.031,0.25 to 0.5,0.5,0.016,0.031,–,–,"MIC (S. aureus ATCC 25923; [24]): ≤ 0.004 µg/mL; MIC [1]: ≤ 0.004 µg/mL; MIC [2]: 0.125 µg/mL; MIC (E. faecium ATCC 19434; ATCC19434, read-out: MIC E. faecium ATCC 19434): 0.25 µg/mL; MIC (E. faecalis ATCC 29212; [12]): 0.008 µg/mL; MIC (S. pneumonia ATCC 49619; [20]): 0.016 µg/mL; MIC (E. coli ATCC 25922; [23]): 0.032 to 0.064 µg/mL; MIC (A. baumannii ATCC 19606; [21]): 0.064 µg/mL; MIC (K. pneumoniae ATCC 33495; [16]): 0.125 µg/mL; MIC (H. influenzae ATCC 49247; [25]): ≤ 0.004 µg/mL; MIC [3, 26]: 0.125 µg/mL"
"Cc1c(-c2ccncc2)ccn2c(=O)c(C(=O)O)cc(C3CC3)c12 [Example 16 K salt, 1-cyclopropyl-9-methyl-4-oxo-8-(pyridin-4-yl)-4H-quinolizine-3-carboxylic acid]",–,–,–,–,–,–,–,–,–,–,0.016,0.063,0.125,0.125,0.016 to 0.031,0.031,–,–,"MIC (S. aureus ATCC 25923; [24]): 0.016 µg/mL; MIC [1]: 0.016 µg/mL; MIC [2]: 0.5 to 1 µg/mL; MIC (E. faecalis ATCC 29212; [12]): 0.064 µg/mL; MIC (S. pneumonia ATCC 49619; [20]): 0.125 µg/mL; MIC (E. coli ATCC 25922; [23]): 0.032 µg/mL; MIC (A. baumannii ATCC 19606; [21]): 0.125 µg/mL; MIC (K. pneumoniae ATCC 33495; [16]): 0.125 µg/mL; MIC (H. influenzae ATCC 49247; [25]): ≤ 0.004 µg/mL; MIC [3, 26]: 0.125 µg/mL"
"Cc1c(-c2cccc(F)c2)ccn2c(=O)c(C(=O)O)cc(C3CC3)c12 [Example 10 K salt, 1-cyclopropyl-8-(3-fluoro-phenyl)-9-methyl-4-oxo-4H-quinolizine-3-carboxylic acid]",0.008,0.008,0.5,0.5,0.125,0.125,0.25,2,0.008,0.25 to 0.5,–,–,–,–,–,–,0.032,0.25,–
"Cc1cc(-c2ccn3c(=O)c(C(=O)O)cc(C4CC4)c3c2C)ccc1N [Example 19 K salt, 8-(4-amino-3-methyl-phenyl)-1-cyclopropyl-9-methyl-4-oxo-4H-quinolizine-3-carboxylic acid]",0.016,0.016,0.25,1,0.064 to 0.125,0.064 to 0.125,0.125 to 0.25,2,0.008,0.25,–,–,–,–,–,–,0.032,0.25,–
"Cc1c(N2CCC[C@H](N)C2)ccn2c(=O)c(C(=O)O)cc(C3CC3)c12 [Example 35 K salt, 8-[(3S)-3-amino-1-piperidyl]-1-cyclopropyl-9-methyl-4-oxo-quinolizine-3-carboxylic acid]",0.032,0.032,0.5,2,0.032,0.032,0.25,0.5,0.008 to 0.016,0.125,–,–,–,–,–,–,0.125,0.125 to 0.5,–
"COc1c(N2C[C@@H]3CCCN[C@@H]3C2)c(F)cc2c(=O)c(C(=O)O)cn(C3CC3)c12 [Moxyfloxacin, reference compound]",0.064,0.064,4,4,0.125,0.032,0.5,2,0.032,0.125,–,–,–,–,–,–,0.25,0.125,–
"Cc1c(-c2ccc(NS(C)(=O)=O)cc2)ccn2c(=O)c(C(=O)O)cc(C3CC3)c12 [Example 14 K salt, 1-cyclopropyl-9-methyl-8-(4-(methylsulfonamido)-phenyl)-4-oxo-4H-quinolizine-3-carboxylic acid]",0.016,0.016,0.5,8,0.125,0.25,0.5 to 1,> 8,0.016,1,–,–,–,–,–,–,0.064,1,–
"Cc1c(N2CC[C@H](N)C2)c(F)cn2c(=O)c(C(=O)O)cc(C3CC3)c12 [Example 26 K salt, 8-[(3S)-3-aminopyrrolidin-1-yl]-1-cyclopropyl-7-fluoro-9-methyl-4-oxo-quinolizine-3-carboxylic acid]",0.032,0.032,1,1,0.064,≤ 0.004,0.064,0.125,≤ 0.004,0.064,–,–,–,–,–,–,0.125,0.016,–
